Assay results taken from patent publication US20240246942A1, “KINASE INHIBITORS FOR THE TREATMENT OF NEURODEGENERATIVE DISEASES” (priority 2020, published 2024).
Read-outs that look alike come from different tables or passages of the source.

Tests used:
Experiment in all cases: biochemical
[1] = target: T1, panel of 374 wild-type kinases (Homo sapiens, UniProt Q09013); conditions: read-out: % Enzyme Activity (relative to DMSO controls), DMPK
T1 construct: purchased Reaction Biology Corporation
T1 sequence (Q09013 1-629): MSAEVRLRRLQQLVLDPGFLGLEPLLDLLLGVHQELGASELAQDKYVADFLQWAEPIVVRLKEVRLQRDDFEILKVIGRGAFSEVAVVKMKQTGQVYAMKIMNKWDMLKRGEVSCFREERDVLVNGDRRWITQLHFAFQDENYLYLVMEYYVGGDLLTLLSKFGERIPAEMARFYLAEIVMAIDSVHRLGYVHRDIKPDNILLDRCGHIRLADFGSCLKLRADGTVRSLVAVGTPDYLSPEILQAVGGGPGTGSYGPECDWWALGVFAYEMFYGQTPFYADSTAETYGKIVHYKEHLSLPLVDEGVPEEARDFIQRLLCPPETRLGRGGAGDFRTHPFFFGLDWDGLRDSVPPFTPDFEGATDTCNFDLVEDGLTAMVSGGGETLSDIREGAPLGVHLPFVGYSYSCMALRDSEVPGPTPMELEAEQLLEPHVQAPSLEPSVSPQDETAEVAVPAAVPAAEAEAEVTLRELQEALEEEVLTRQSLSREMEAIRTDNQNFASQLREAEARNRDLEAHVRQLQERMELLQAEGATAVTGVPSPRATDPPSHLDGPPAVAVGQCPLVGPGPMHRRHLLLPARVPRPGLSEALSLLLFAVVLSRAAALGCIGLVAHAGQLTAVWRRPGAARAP

[2] = target: T2, panel of 374 wild-type kinases (Homo sapiens, UniProt P25098); conditions: read-out: % Enzyme Activity (relative to DMSO controls), GRK2
T2 construct: purchased Reaction Biology Corporation
T2 sequence (P25098 1-689): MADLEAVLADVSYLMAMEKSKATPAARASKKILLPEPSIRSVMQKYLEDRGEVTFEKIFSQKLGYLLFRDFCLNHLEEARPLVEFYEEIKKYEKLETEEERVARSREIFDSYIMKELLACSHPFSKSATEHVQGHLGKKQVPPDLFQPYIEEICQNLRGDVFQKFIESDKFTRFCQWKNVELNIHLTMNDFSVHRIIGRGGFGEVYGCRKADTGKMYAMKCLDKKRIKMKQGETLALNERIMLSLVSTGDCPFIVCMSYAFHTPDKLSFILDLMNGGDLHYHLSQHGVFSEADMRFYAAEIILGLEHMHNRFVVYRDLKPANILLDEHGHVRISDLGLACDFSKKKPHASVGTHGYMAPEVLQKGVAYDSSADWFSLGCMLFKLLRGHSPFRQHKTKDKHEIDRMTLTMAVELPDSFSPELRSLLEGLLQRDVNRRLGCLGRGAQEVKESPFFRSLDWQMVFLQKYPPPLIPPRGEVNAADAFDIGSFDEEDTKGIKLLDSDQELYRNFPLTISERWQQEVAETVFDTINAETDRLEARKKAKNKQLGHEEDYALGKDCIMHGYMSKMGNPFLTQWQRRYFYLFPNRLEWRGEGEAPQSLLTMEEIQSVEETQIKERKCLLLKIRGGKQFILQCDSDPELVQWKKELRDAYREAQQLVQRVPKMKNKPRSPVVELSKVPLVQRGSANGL

[3] = target: T3, panel of 374 wild-type kinases (Homo sapiens, UniProt Q99759); conditions: read-out: % Enzyme Activity (relative to DMSO controls), MEKK3
T3 construct: purchased Reaction Biology Corporation
T3 sequence (Q99759 1-626): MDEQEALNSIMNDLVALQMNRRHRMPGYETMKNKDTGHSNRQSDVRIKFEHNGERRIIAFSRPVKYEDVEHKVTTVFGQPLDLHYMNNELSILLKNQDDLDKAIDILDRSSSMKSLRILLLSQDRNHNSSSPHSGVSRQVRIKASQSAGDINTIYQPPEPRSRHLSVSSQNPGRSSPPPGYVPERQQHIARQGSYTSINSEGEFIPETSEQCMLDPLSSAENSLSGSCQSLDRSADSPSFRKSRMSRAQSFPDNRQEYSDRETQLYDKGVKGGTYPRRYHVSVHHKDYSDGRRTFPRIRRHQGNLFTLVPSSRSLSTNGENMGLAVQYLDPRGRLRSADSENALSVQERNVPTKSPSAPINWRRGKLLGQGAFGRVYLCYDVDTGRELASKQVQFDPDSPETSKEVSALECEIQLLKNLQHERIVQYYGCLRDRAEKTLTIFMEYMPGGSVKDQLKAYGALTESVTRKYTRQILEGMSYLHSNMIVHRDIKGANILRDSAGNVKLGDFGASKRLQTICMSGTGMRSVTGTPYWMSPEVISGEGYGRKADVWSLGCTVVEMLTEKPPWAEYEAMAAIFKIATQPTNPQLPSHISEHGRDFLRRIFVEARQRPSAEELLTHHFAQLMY

[4] = target: T4, panel of 374 wild-type kinases (Homo sapiens, UniProt P11802)
T4 construct: purchased Reaction Biology Corporation

[5] = target: T5, panel of 374 wild-type kinases (Homo sapiens, UniProt P12931); conditions: read-out: % Enzyme Activity (relative to DMSO controls), c-Src
T5 construct: purchased Reaction Biology Corporation

[6] = target: T6, panel of 374 wild-type kinases (Homo sapiens, UniProt P04629); conditions: read-out: % Enzyme Activity (relative to DMSO controls), kinase TRKA
T6 construct: purchased Reaction Biology Corporation

[7] = target: T7, panel of 374 wild-type kinases (Homo sapiens, UniProt P49759); conditions: read-out: % Enzyme Activity (relative to DMSO controls), CLK1
T7 construct: purchased Reaction Biology Corporation

[8] = read-out: % Enzyme Activity (relative to DMSO controls), CDK4/cyclin D1
[9] = read-out: % Enzyme Activity (relative to DMSO controls), CDK4/cyclin D3

T5 sequence (P12931 whole entry): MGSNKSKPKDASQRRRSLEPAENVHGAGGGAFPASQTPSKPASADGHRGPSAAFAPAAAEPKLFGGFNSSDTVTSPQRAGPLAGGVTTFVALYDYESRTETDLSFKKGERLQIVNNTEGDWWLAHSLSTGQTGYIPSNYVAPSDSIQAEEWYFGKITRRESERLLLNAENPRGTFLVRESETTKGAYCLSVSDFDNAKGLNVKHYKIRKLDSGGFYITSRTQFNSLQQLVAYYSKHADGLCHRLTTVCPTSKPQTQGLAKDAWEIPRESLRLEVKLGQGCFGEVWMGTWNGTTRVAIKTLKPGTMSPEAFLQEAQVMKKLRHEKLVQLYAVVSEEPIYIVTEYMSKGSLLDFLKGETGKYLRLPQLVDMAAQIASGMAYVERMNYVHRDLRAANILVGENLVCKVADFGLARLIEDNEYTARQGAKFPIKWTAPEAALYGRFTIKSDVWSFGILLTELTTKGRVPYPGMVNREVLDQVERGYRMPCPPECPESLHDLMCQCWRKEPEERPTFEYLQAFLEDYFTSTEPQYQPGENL
T6 sequence (P04629 33-796): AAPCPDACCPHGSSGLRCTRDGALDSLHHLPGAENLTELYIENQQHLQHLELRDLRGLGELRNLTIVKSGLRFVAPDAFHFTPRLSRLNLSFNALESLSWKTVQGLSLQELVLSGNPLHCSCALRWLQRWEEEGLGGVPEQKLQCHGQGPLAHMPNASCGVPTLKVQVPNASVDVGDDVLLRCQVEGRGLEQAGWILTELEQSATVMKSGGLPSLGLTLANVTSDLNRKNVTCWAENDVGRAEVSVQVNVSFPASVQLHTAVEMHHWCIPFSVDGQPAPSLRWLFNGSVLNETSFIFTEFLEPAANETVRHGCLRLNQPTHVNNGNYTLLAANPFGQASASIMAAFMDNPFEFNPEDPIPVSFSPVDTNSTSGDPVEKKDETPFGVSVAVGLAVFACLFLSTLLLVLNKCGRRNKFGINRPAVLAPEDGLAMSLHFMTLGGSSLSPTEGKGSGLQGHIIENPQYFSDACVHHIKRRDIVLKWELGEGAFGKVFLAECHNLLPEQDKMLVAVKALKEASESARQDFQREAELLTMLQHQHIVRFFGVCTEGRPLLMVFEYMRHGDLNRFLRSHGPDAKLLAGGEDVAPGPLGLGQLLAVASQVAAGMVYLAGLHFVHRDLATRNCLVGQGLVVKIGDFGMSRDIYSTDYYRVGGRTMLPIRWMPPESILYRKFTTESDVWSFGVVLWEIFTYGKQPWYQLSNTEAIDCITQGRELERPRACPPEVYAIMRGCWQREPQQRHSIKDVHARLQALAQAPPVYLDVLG
T7 sequence (P49759 whole entry): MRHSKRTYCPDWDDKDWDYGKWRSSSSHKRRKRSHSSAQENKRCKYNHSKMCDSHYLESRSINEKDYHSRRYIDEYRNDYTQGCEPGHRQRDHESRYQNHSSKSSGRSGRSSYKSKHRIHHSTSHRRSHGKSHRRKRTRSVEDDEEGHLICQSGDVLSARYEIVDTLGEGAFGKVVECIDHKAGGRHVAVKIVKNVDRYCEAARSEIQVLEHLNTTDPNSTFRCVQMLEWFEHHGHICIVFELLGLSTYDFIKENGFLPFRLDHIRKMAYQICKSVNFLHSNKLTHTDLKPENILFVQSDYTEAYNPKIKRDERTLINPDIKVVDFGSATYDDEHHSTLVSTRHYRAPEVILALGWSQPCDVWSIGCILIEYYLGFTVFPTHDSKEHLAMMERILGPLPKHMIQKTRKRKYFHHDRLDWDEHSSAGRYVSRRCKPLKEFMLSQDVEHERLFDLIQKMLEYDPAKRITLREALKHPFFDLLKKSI
T4 sequence (P11802 whole entry): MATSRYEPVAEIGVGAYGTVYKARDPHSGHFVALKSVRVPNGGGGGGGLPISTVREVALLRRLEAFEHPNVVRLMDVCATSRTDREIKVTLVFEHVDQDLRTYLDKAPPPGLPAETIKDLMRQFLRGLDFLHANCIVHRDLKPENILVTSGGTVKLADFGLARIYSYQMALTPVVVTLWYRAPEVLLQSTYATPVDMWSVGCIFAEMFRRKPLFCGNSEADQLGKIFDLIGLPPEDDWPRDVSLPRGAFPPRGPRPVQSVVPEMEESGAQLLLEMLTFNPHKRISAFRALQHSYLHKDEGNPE

Question: How did the remaining activity at 10 µM ([1]; 10 uM) turn out when Cc1sc(C(=O)NC2COC2)cc1-n1cc(NC(=O)Nc2c(F)cccc2Cl)cn1 [Compound 27, 4-(4-(3-(2-chloro-6-fluorophenyl)ureido)-1H-pyrazol-1-yl)-5-methyl-N-(oxetan-3-yl)thiophene-2-carboxamide] was run?
Answer: 95.2%

Question: And the remaining activity at 10 µM ([2]; 10 uM)?
Answer: 106%

Question: And the remaining activity at 10 µM ([3]; 10 uM)?
Answer: 113%

Question: What about the remaining activity at 10 µM [4, 8] of the same compound?
Answer: 78%

Question: And the remaining activity at 10 µM [4, 9]?
Answer: 96.5%

Question: What about the remaining activity at 10 µM ([5]; 10 uM) of the same compound?
Answer: 96.6%

Question: And the remaining activity at 10 µM ([6]; 10 uM)?
Answer: 81%

Question: And the remaining activity at 10 µM ([7]; 10 uM)?
Answer: 98.4%

Question: With O=C(Nc1cnn(-c2csc(C(=O)NC3COC3)c2)c1)Nc1c(F)cccc1Cl [Compound 25, 4-(4-(3-(2-chloro-6-fluorophenyl)ureido)-1H-pyrazol-1-yl)-N-(oxetan-3-yl)thiophene-2-carboxamide] as the compound, how does the remaining activity at 5 µM [1] read?
Answer: 110%

Question: What about the remaining activity at 5 µM [2] of the same compound?
Answer: 106%

Question: What about the remaining activity at 5 µM [3] of the same compound?
Answer: 81.9%

Question: And the remaining activity at 5 µM [4, 8]?
Answer: 90.3%

Question: And the remaining activity at 5 µM [4, 9]?
Answer: 79.4%

Question: What about the remaining activity at 5 µM [5] of the same compound?
Answer: 98.4%

Question: What about the remaining activity at 5 µM [6] of the same compound?
Answer: 87.8%

Question: What about the remaining activity at 5 µM [7] of the same compound?
Answer: 74.9%

Question: O=C(Nc1cnn(-c2csc(C(=O)NC3COC3)c2)c1)Nc1ccccc1Cl [Compound 17, 4-(4-(3-(2-chlorophenyl)ureido)-1H-pyrazol-1-yl)-N-(oxetan-3-yl)thiophene-2-carboxamide] was tested. Which remaining activity at 5 µM [1] did it give?
Answer: 102%

Question: And the remaining activity at 5 µM [2]?
Answer: 96.1%

Question: And the remaining activity at 5 µM [3]?
Answer: 113%

Question: And the remaining activity at 5 µM [4, 8]?
Answer: 92.2%

Question: What about the remaining activity at 5 µM [4, 9] of the same compound?
Answer: 98.2%

Question: What about the remaining activity at 5 µM [5] of the same compound?
Answer: 91.1%

Question: And the remaining activity at 5 µM [6]?
Answer: 100%

Question: What about the remaining activity at 5 µM [7] of the same compound?
Answer: 81%
